Results from US8710049B2, “Diaminocyclohexane compounds and uses thereof” (Bristol-Myers Squibb Company, priority 2011, dated 2014).

target: T1, Y4 receptor (Homo sapiens, UniProt P50391); experiment: not given; details: background statement; cited from earlier work
T1 sequence (P50391 whole entry): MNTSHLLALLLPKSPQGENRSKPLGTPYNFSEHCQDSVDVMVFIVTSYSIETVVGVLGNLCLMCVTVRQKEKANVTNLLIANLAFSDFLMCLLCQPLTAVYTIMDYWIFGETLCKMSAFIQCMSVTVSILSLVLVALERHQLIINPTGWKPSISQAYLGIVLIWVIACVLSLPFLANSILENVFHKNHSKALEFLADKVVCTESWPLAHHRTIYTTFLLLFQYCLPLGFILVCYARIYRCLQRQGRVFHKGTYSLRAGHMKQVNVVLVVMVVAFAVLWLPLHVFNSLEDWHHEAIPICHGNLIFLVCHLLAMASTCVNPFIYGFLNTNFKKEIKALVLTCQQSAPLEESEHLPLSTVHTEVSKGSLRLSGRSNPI

| Compound | affinity for Y4 receptor |
| --- | --- |
| PYY: naturally secreted 36 amino acid, C-terminally amidated PP-fold peptide | nanomolar affinity |

target: T1, Y4 receptor; experiment: NPY4 cAMP HTRF Agonist Assay; assay type: cell-based; design: expressed in transfected cells; details: human Y4 stable CHO clonal cells; inhibitory cAMP assay with Forskolin and IBMX, 30 minutes at room temperature
Procedure: NPY4 cAMP HTRF Agonist Assay
The functionality of the compound at Y4 receptor was analyzed using an inhibitory cAMP assay (CISBIO, HTRF cAMP kit #62AM4PEC) to measure the Gi activation by Y4 agonism.
The human Y4 stable CHO clonal cells were maintained in culture medium (F-12 containing 10% Fetal Bovine Serum, […] GENETICIN®, […] Zeocin). Before the experiment, 5 μL of 1 uM Forskolin (Sigma, # F6886) and 100 uM IBMX (Sigma, #15879) in PBS buffer were added into 384-well plates (PE, Proxi-plate) that were pre-dotted with […] compounds. The cells were removed from the flasks by Cellstripper, counted and adjusted to 1.0×10^6 cells/mL in PBS buffer, and added 5 μL/well (5000 cells/well) into the above 384-well plates. The cells were then covered and incubated for 30 minutes at room temperature. After incubation, 5 μL/well of D2-conjugate in HTRF lysis buffer was first added, followed by adding 5 μL/well of anti-cAMP Cryptate in HTRF lysis buffer. The plates were incubated for another 1 hour at room temperature and read on the EnVision Multilabel Plate Reader.

| Compound | EC50 [µM] |
| --- | --- |
| Cn1cc(CC(=O)N[C@@H]2CCCC[C@H]2N[C@H]2CCCN(c3ccc(C#N)cc3)C2)c2ccccc21 [Example 10, N-((1R,2R)-2-((S)-1-(4-Cyanophenyl)piperidin-3-ylamino)cyclohexyl)-2-(1-methyl-1H-indol-3-yl)acetamide] | 0.33 |
| O=C(Nc1cc(C(F)(F)F)cc(C(F)(F)F)c1)N[C@@H]1CCCC[C@H]1N[C@H]1CCCN(c2ccc(C(F)(F)F)cc2)C1 [Example 89] | 2.34 |
| O=C(N[C@@H]1CCCC[C@H]1N[C@H]1CCCN(c2ccc(-c3nc4ccccc4o3)cc2)C1)OCc1ccccc1 [Example 43, Benzyl (1R,2R)-2-((S)-1-(4-(benzo[d]oxazol-2-yl)phenyl)piperidin-3-ylamino)cyclohexylcarbamate] | 1.4 |
| O=C(Nc1ccc(OC(F)(F)F)cc1)N[C@@H]1CCCC[C@H]1N[C@H]1CCCN(c2ccc([N+](=O)[O-])cc2)C1 [Example 3, 1-((1R,2R)-2-((S)-1-(4-Nitrophenyl)piperidin-3-ylamino)cyclohexyl)-3-(4-(trifluoromethoxy)phenyl)urea] | 0.046 |
| O=C(Nc1ccc(OC(F)(F)F)cc1)N[C@@H]1CCCC[C@H]1N[C@H]1C[C@@H]2C[C@H]1N(c1ccc([N+](=O)[O-])cc1)C2 [Example 4, 1-((1R,2R)-2-((1R,4R,6S)-2-(4-Nitrophenyl)-2-azabicyclo[2.2.1]heptan-6-ylamino)cyclohexyl)-3-(4-(trifluoromethoxy)phenyl)urea] | 0.025 |
| Cc1ccc(COC(=O)N[C@@H]2CCCC[C@H]2N[C@H]2CCCN(c3ccc(C(F)(F)F)cc3)C2)cc1 [Example 63] | 0.515 |
| Cc1nnc(-c2ccc(N3CCC[C@H](N[C@@H]4CCCC[C@H]4NC(=O)OCc4ccccc4)C3)cc2)o1 [Example 7, Benzyl (1R,2R)-2-((S)-1-(4-(5-methyl-1,3,4-oxadiazol-2-yl)phenyl)piperidin-3-ylamino)cyclohexylcarbamate] | 0.072 |
| N#Cc1ccc(N2CCC[C@H](N[C@@H]3CCCC[C@H]3NC(=O)Nc3ccc(C(F)(F)F)cc3)C2)cc1 [Example 56, 1-((1R,2R)-2-((S)-1-(4-Cyanophenyl)piperidin-3-ylamino)cyclohexyl)-3-(4-(trifluoromethyl)phenyl)urea] | 3.62 |
| N#Cc1ccc(N2CCC[C@H](N[C@@H]3CCCC[C@H]3NC(=O)Nc3cccc(O)c3)C2)cc1 [Example 36, 1-((1R,2R)-2-((S)-1-(4-Cyanophenyl)piperidin-3-ylamino)cyclohexyl)-3-(3-hydroxyphenyl)urea] | 0.61 |
| O=C(Nc1ccccc1)N[C@@H]1CCCC[C@H]1N[C@H]1CCCN(c2ccc([N+](=O)[O-])cc2)CC1 [Example 52, 1-((1R,2R)-2-((S)-1-(4-Nitrophenyl)azepan-4-ylamino)cyclohexyl)-3-phenylurea] | 2.89 |
| N#Cc1ccc(N2CCC[C@H](N[C@@H]3CCCC[C@H]3NC(=O)OCc3ccc(OC(F)(F)F)cc3)C2)cc1 [Example 16, 4-(Trifluoromethoxy)benzyl (1R,2R)-2-((S)-1-(4-cyanophenyl)piperidin-3-ylamino)cyclohexylcarbamate] | 0.072 |
| N#Cc1cc(N2CCC[C@H](N[C@@H]3CCCC[C@H]3NC(=O)Nc3ccccc3)C2)ccn1 [Example 45, 1-((1R,2R)-2-((S)-1-(2-Cyanopyridin-4-yl)piperidin-3-ylamino)cyclohexyl)-3-phenylurea] | 1.46 |
| COc1ccc(COC(=O)N[C@@H]2CCCC[C@H]2N[C@H]2CCCN(c3ccc(C#N)cc3)C2)cc1 [Example 34, 4-Methoxybenzyl (1R,2R)-2-((S)-1-(4-cyanophenyl)piperidin-3-ylamino)cyclohexylcarbamate] | 0.575 |
| O=C(Nc1ccccc1)N[C@@H]1CCCC[C@H]1N[C@H]1CCCN(c2ccc([N+](=O)[O-])cc2)C1 [Example 1, 1-((1R,2R)-2-((S)-1-(4-Nitrophenyl)piperidin-3-ylamino)cyclohexyl)-3-phenyl urea] | 0.081 |
| C[C@]1(N[C@@H]2CCCC[C@H]2NC(=O)OCc2ccccc2)CCCN(c2ccc([N+](=O)[O-])cc2)C1 [Example 58, Benzyl (1R,2R)-2-((S)-3-methyl-1-(4-nitrophenyl)piperidin-3-ylamino)cyclohexylcarbamate] | 0.01 |
| CCOC(=O)c1ccc(N2CC[C@H](N[C@@H]3CCCC[C@H]3NC(=O)OCc3ccccc3)C2)cc1 [Example 32, Ethyl 4-((S)-3-((1R,2R)-2-(benzyloxycarbonylamino)cyclohexylamino)pyrrolidin-1-yl)benzoate] | 0.54 |
